Format in all cases: functional
Experiment [1] concerns Staphylococcus aureus. As to the kind of experiment: Tested in vitro for inhibitory activity against gram positive bacteria Staphylococcus aureus MPR 5 strain.
Experiment [2] concerns Klebsiella pneumoniae. As to the kind of experiment: Tested in vitro for inhibitory activity against gram negative bacteria Klebsiella pneumoniae ATCC 10031 strain.
For experiment [3], the system named is Escherichia coli. The experiment in a line: Tested in vitro for inhibitory activity against gram negative bacteria Escherichia coli ATCC 8739 strain.
In experiment [4] the test system is Providencia stuartii. The experiment in a line: Tested in vitro for inhibitory activity against gram negative bacteria Providencia stuartii CNUR 5 strain.
Experiment [5] relates to Pseudomonas aeruginosa. As to the kind of experiment: Tested in vitro for inhibitory activity against gram negative bacteria Pseudomonas aeruginosa ATCC 9027 strain.
The test system of experiment [6] is Staphylococcus epidermidis. The experiment in a line: Tested in vitro for inhibitory activity against gram positive bacteria Staphylococcus epidermidis HCF berset C strain.
Experiment [7] deals with Enterobacter cloacae. The experiment in a line: Tested in vitro for inhibitory activity against gram negative bacteria Enterobacter cloacae OMNFI 174 strain.
The subject of experiment [8] is Acinetobacter calcoaceticus. The experiment in a line: Tested in vitro for inhibitory activity against gram negative bacteria Acinetobacter calcoaceticus OSMPV 113 strain.
Experiment [9] deals with Escherichia coli. The experiment in a line: Tested in vitro for inhibitory activity against gram negative bacteria Escherichia coli ISF 432 strain.
Experiment [10] deals with Enterococcus faecalis. As to the kind of experiment: Tested in vitro for inhibitory activity against gram positive bacteria Streptococcus faecalis LEP Br strain.
Experiment [11] concerns Shigella. The experiment in a line: Tested in vitro for inhibitory activity against gram negative bacteria Shigella enteritidis.
Experiment [12] concerns Staphylococcus aureus. As to the kind of experiment: Tested in vitro for inhibitory activity against gram positive bacteria Staphylococcus aureus ATCC 6538 strain.
Experiment [13] relates to Staphylococcus epidermidis. As to the kind of experiment: Tested in vitro for inhibitory activity against gram positive bacteria Staphylococcus epidermidis CPHL A2 strain.

≈ marks a conversion by molar mass, not a printed value.

As for `O=C(O)c1cn(C2CC2)c2c(F)c(N3CCSCC3)c(F)cc2c1=O`, the MIC was found to be 0.03 µg/mL (≈ 0.0819 µM) in experiment [1]; 0.008 µg/mL (≈ 0.0218 µM) in [2]; 0.01 µg/mL (≈ 0.0273 µM) in experiment [3]; 0.12 µg/mL (≈ 0.328 µM) in experiment [4]; 1 µg/mL (≈ 2.73 µM) in experiment [5]; 0.06 µg/mL (≈ 0.164 µM) in experiment [6]. For the same molecule, the MIC is 0.25 µg/mL (≈ 0.682 µM) in [7]; 1 µg/mL (≈ 2.73 µM) in experiment [8]; 0.008 µg/mL (≈ 0.0218 µM) in experiment [9]; 0.5 µg/mL (≈ 1.36 µM) in experiment [10]; 0.25 µg/mL (≈ 0.682 µM) in experiment [11]; 0.03 µg/mL (≈ 0.0819 µM) in experiment [12]. This molecule came in with an MIC in experiment [13] of 0.06 µg/mL (≈ 0.164 µM).

`CC(C)(C)n1cc(C(=O)O)c(=O)c2cc(N)c(N3CCN(c4ccccn4)CC3)cc21`: the MIC in experiment [1] was found to be 1 µg/mL (≈ 2.37 µM); in [2] it was 0.25 µg/mL (≈ 0.593 µM); in experiment [3], 0.5 µg/mL (≈ 1.19 µM); in [4] it was 128 µg/mL (≈ 304 µM); in experiment [5], 128 µg/mL (≈ 304 µM); in experiment [6], 2 µg/mL (≈ 4.74 µM). Further, the minimal inhibitory concentration (MIC) in [7] was 64 µg/mL (≈ 152 µM); in experiment [8], 1 µg/mL (≈ 2.37 µM); in [9], 0.5 µg/mL (≈ 1.19 µM); in experiment [10], 16 µg/mL (≈ 38 µM); in [11], 64 µg/mL (≈ 152 µM); in [12], 1 µg/mL (≈ 2.37 µM). The same molecule displayed an MIC in experiment [13] of 1 µg/mL (≈ 2.37 µM).

Take `NCCSc1cc2c(cc1N)c(=O)c(C(=O)O)cn2C1CC1`: the minimum inhibitory concentration (MIC) stood at 128 µg/mL (≈ 401 µM) in [1]; 2 µg/mL (≈ 6.26 µM) in experiment [2]; 1 µg/mL (≈ 3.13 µM) in [3]; 128 µg/mL (≈ 401 µM) in [4]; 128 µg/mL (≈ 401 µM) in experiment [5]; 128 µg/mL (≈ 401 µM) in experiment [6]. Further, the MIC in experiment [7] is 128 µg/mL (≈ 401 µM); in experiment [8], 128 µg/mL (≈ 401 µM); in [9], 1 µg/mL (≈ 3.13 µM); in experiment [10] it was 128 µg/mL (≈ 401 µM); in [11] it was 128 µg/mL (≈ 401 µM); in experiment [12] it was 128 µg/mL (≈ 401 µM). Moreover, the lowest concentration to inhibit growth in experiment [13] (MIC) was 128 µg/mL (≈ 401 µM).

`Nc1cc2c(=O)c(C(=O)O)cn(C3CC3)c2cc1N1CCSC1`: the MIC stood at 128 µg/mL (≈ 386 µM) in experiment [1]; 0.5 µg/mL (≈ 1.51 µM) in experiment [2]; 0.5 µg/mL (≈ 1.51 µM) in [3]; 128 µg/mL (≈ 386 µM) in experiment [4]; 128 µg/mL (≈ 386 µM) in [5]; 64 µg/mL (≈ 193 µM) in [6]. In addition, the minimum inhibitory concentration (MIC) is 16 µg/mL (≈ 48.3 µM) in experiment [7]; 128 µg/mL (≈ 386 µM) in [8]; 1 µg/mL (≈ 3.02 µM) in experiment [9]; 128 µg/mL (≈ 386 µM) in experiment [10]; 32 µg/mL (≈ 96.6 µM) in experiment [11]; 64 µg/mL (≈ 193 µM) in experiment [12]. This molecule registered an MIC in [13] of 64 µg/mL (≈ 193 µM).

Turning to `CC1CN(c2cc3c(cc2N)c(=O)c(C(=O)O)cn3C2CC2)CCN1` (stereo unspecified), the minimal inhibitory concentration (MIC) stood at 16 µg/mL (≈ 46.7 µM) in experiment [1]; 0.03 µg/mL (≈ 0.0876 µM) in experiment [2]; 0.03 µg/mL (≈ 0.0876 µM) in experiment [3]; 16 µg/mL (≈ 46.7 µM) in [4]; 2 µg/mL (≈ 5.84 µM) in experiment [5]; 4 µg/mL (≈ 11.7 µM) in experiment [6]. Moreover, the MIC is 0.25 µg/mL (≈ 0.73 µM) in experiment [7]; 16 µg/mL (≈ 46.7 µM) in experiment [8]; 0.03 µg/mL (≈ 0.0876 µM) in [9]; 32 µg/mL (≈ 93.5 µM) in experiment [10]; 0.25 µg/mL (≈ 0.73 µM) in experiment [11]; 16 µg/mL (≈ 46.7 µM) in experiment [12]. This molecule also displayed a minimal inhibitory concentration (MIC) in experiment [13] of 4 µg/mL (≈ 11.7 µM).

For `CN1CCN(c2nc3c(c(N)c2N)c(=O)c(C(=O)O)cn3C2CC2)CC1`, the MIC came to 2 µg/mL (≈ 5.58 µM) in experiment [1]; 0.01 µg/mL (≈ 0.0279 µM) in experiment [2]; 0.25 µg/mL (≈ 0.698 µM) in experiment [3]; 0.5 µg/mL (≈ 1.4 µM) in [4]; 8 µg/mL (≈ 22.3 µM) in experiment [5]; 2 µg/mL (≈ 5.58 µM) in experiment [6]. The MIC in experiment [7] was 0.25 µg/mL (≈ 0.698 µM); in experiment [8] it was 0.5 µg/mL (≈ 1.4 µM); in experiment [9], 0.01 µg/mL (≈ 0.0279 µM); in [10] it was 8 µg/mL (≈ 22.3 µM); in experiment [11], 0.25 µg/mL (≈ 0.698 µM); in experiment [12], 2 µg/mL (≈ 5.58 µM). The same molecule came in with a minimum inhibitory concentration (MIC) in experiment [13] of 2 µg/mL (≈ 5.58 µM).

Turning to `Nc1cc2c(=O)c(C(=O)O)cn(C3CC3)c2cc1N1CCCC1`, the MIC in [1] came out at 128 µg/mL (≈ 408 µM); in [2], 0.25 µg/mL (≈ 0.798 µM); in experiment [3], 0.25 µg/mL (≈ 0.798 µM); in experiment [4], 128 µg/mL (≈ 408 µM); in experiment [5], 128 µg/mL (≈ 408 µM); in experiment [6], 128 µg/mL (≈ 408 µM). Besides, the MIC in experiment [7] is 8 µg/mL (≈ 25.5 µM); in experiment [8] it was 128 µg/mL (≈ 408 µM); in experiment [9], 0.25 µg/mL (≈ 0.798 µM); in experiment [10], 128 µg/mL (≈ 408 µM); in experiment [11], 16 µg/mL (≈ 51.1 µM); in experiment [12], 128 µg/mL (≈ 408 µM). The same molecule had a minimum inhibitory concentration (MIC) in experiment [13] of 128 µg/mL (≈ 408 µM).

In the case of `C[C@@H]1CN(c2cc3c(cc2N)c(=O)c(C(=O)O)cn3C2CC2)C[C@H](C)N1`, the MIC is 8 µg/mL (≈ 22.4 µM) in [1]; 0.03 µg/mL (≈ 0.0842 µM) in experiment [2]; 0.03 µg/mL (≈ 0.0842 µM) in experiment [3]; 4 µg/mL (≈ 11.2 µM) in [4]; 2 µg/mL (≈ 5.61 µM) in experiment [5]; 4 µg/mL (≈ 11.2 µM) in [6]. Also, the MIC in experiment [7] was 0.5 µg/mL (≈ 1.4 µM); in experiment [8], 8 µg/mL (≈ 22.4 µM); in experiment [9] it was 0.03 µg/mL (≈ 0.0842 µM); in experiment [10], 32 µg/mL (≈ 89.8 µM); in experiment [11], 0.25 µg/mL (≈ 0.701 µM); in experiment [12], 8 µg/mL (≈ 22.4 µM). This molecule came in with an MIC in [13] of 2 µg/mL (≈ 5.61 µM).

Turning to `N#CCN1CCN(c2cc3c(cc2N)c(=O)c(C(=O)O)cn3C2CC2)CC1`, the minimal inhibitory concentration (MIC) was 64 µg/mL (≈ 174 µM) in [1]; 2 µg/mL (≈ 5.44 µM) in experiment [2]; 4 µg/mL (≈ 10.9 µM) in experiment [3]; 2 µg/mL (≈ 5.44 µM) in [4]; 64 µg/mL (≈ 174 µM) in experiment [5]; 64 µg/mL (≈ 174 µM) in experiment [6]. Besides, the MIC in experiment [7] is 2 µg/mL (≈ 5.44 µM); in experiment [8], 64 µg/mL (≈ 174 µM); in experiment [9], 2 µg/mL (≈ 5.44 µM); in [11] it was 32 µg/mL (≈ 87.1 µM); in [12] it was 64 µg/mL (≈ 174 µM); in experiment [13], 64 µg/mL (≈ 174 µM).

Broadly, the MIC is the least concentration at which growth counts as inhibited.

Values taken from ChEMBL document CHEMBL1128274, “6-Aminoquinolones: a new class of quinolone antibacterials?” (1995).
